Assay results taken from ChEMBL document CHEMBL4616708, “Antitumor Potential of the Isoflavonoids (+)- and (-)-2,3,9-Trimethoxypterocarpan: Mechanism-of-Action Studies” (ACS Med Chem Lett, 2020).
Values belong to the molecule of their own block, whether it stands above or below them. Active and inactive are the calls of the source. The calls are words filed in the database; no cut-off is given here.

What was measured:
[1] = system: HCT-116; test: Cytotoxicity against human HCT116 cells assessed as reduction in cell viability incubated for 72 hrs by MTT assay; assay type: functional, cell-based; settings: HCT-116, 72 h
[2] = system: HL-60; test: Cytotoxicity against human HL60 cells assessed as reduction in cell viability incubated for 72 hrs by MTT assay; assay type: functional, cell-based; settings: HL-60, 72 h
[3] = system: OVCAR-8; test: Cytotoxicity against human OVCAR8 cells assessed as reduction in cell viability incubated for 72 hrs by MTT assay; assay type: functional, cell-based; settings: OVCAR-8, 72 h
[4] = system: SF-295; test: Cytotoxicity against human SF295 cells assessed as reduction in cell viability incubated for 72 hrs by MTT assay; assay type: functional, cell-based; settings: SF-295, 72 h
[5] = system: OVCAR-8; test: Induction of apoptosis in human OVCAR8 cells assessed as increase in apoptotic cells at 0.6 uM incubated for 48 hrs by acridine orange and ethidium bromide dye based fluorescence microscopy analysis; assay type: functional, cell-based
[6] = system: OVCAR-8; test: Induction of apoptosis in human OVCAR8 cells assessed as reduction in cell viability at 0.6 uM incubated for 48 hrs by acridine orange and ethidium bromide dye based fluorescence microscopy analysis; assay type: functional
[7] = system: OVCAR-8; test: Cytotoxicity against human OVCAR8 cells assessed as reduction in cell viability at 1 to 4 uM measured upto 98 hrs by xcCELLigence RTCA analysis; assay type: functional, cell-based
[8] = system: OVCAR-8; test: Cell cycle arrest in human OVCAR8 cells assessed as accumulation at G0/G1 phase at 5 uM incubated for 24 hrs by propidium iodide staining based flow cytometry (reference value: 67.06 +/- 1.42%); assay type: functional
[9] = system: OVCAR-8; test: Cell cycle arrest in human OVCAR8 cells assessed as accumulation at G0/G1 phase at 10 uM incubated for 24 hrs by propidium iodide staining based flow cytometry (reference value: 67.06 +/- 1.42%); assay type: functional
[10] = system: OVCAR-8; test: Cell cycle arrest in human OVCAR8 cells assessed as accumulation at S phase at 5 uM incubated for 24 hrs by propidium iodide staining based flow cytometry (reference value: 7.1 +/- 0.86%); assay type: functional
[11] = system: OVCAR-8; test: Cell cycle arrest in human OVCAR8 cells assessed as accumulation at S phase at 10 uM incubated for 24 hrs by propidium iodide staining based flow cytometry (reference value: 7.1 +/- 0.86%); assay type: functional
[12] = system: OVCAR-8; test: Cell cycle arrest in human OVCAR8 cells assessed as accumulation at G2/M phase at 5 uM incubated for 24 hrs by propidium iodide staining based flow cytometry (reference value: 25.78 +/- 0.71%); assay type: functional
[13] = system: OVCAR-8; test: Cell cycle arrest in human OVCAR8 cells assessed as accumulation at G2/M phase at 10 uM incubated for 24 hrs by propidium iodide staining based flow cytometry (reference value: 25.78 +/- 0.71%); assay type: functional
[14] = system: Lytechinus variegatus; test: Antimitotic activity against sea urchin eggs assessed as inhibition of egg development at blastulation stage; assay type: functional, organism-based
[15] = Cytotoxicity against human PBMC assessed as cell viability at 10 ug/ml incubated for 72 hrs by trypan blue dye based assay; settings: read-out: Activity
[16] = system: Lytechinus variegatus; test: Antimitotic activity against sea urchin eggs assessed as inhibition of development at second cleavage; assay type: functional, organism-based
[17] = system: Lytechinus variegatus; test: Antimitotic activity against sea urchin eggs assessed as inhibition of egg development at first cleavage; assay type: functional, organism-based
[18] = system: OVCAR-8; test: Cytotoxicity against human OVCAR8 cells assessed as reduction in cell viability measured upto 98 hrs by xcCELLigence RTCA analysis; assay type: functional, cell-based
[19] = system: OVCAR-8; test: Cell cycle arrest in human OVCAR8 cells assessed as accumulation at G0/G1 phase at 2.5 uM incubated for 24 hrs by propidium iodide staining based flow cytometry (reference value: 67.06 +/- 1.42%); assay type: functional
[20] = system: OVCAR-8; test: Cell cycle arrest in human OVCAR8 cells assessed as accumulation at G0/G1 phase at 2.5 uM in presence of PTX incubated for 24 hrs by propidium iodide staining based flow cytometry (reference value: 67.06 +/- 1.42%); assay type: functional
[21] = system: OVCAR-8; test: Cell cycle arrest in human OVCAR8 cells assessed as accumulation at S phase at 2.5 uM incubated for 24 hrs by propidium iodide staining based flow cytometry (reference value: 7.1 +/- 0.86%); assay type: functional
[22] = system: OVCAR-8; test: Cell cycle arrest in human OVCAR8 cells assessed as accumulation at S phase at 2.5 uM in presence of PTX incubated for 24 hrs by propidium iodide staining based flow cytometry (reference value: 7.1 +/- 0.86%); assay type: functional
[23] = system: OVCAR-8; test: Cell cycle arrest in human OVCAR8 cells assessed as accumulation at G2/M phase at 2.5 uM incubated for 24 hrs by propidium iodide staining based flow cytometry (reference value: 25.78 +/- 0.71%); assay type: functional
[24] = system: OVCAR-8; test: Cell cycle arrest in human OVCAR8 cells assessed as accumulation at G2/M phase at 2.5 uM in presence of PTX incubated for 24 hrs by propidium iodide staining based flow cytometry (reference value: 25.78 +/- 0.71%); assay type: functional
[25] = system: MCF7; test: Cell cycle arrest in human MCF7 cells assessed as increase in accumulation at G2/M phase at 8 uM incubated for 24 hrs by propidium iodide staining based flow cytometry relative to control; assay type: functional
[26] = system: OVCAR-8; test: Induction of apoptosis in human OVCAR8 cells assessed as reduction in cell viability incubated for 48 hrs by acridine orange and ethidium bromide dye based fluorescence microscopy analysis; assay type: functional
[27] = system: OVCAR-8; test: Induction of apoptosis in human OVCAR8 cells assessed as chromatin condensation at 20 to 40 uM incubated for 48 hrs by hematoxylin and eosin staining based […] analysis; assay type: functional, cell-based
[28] = system: OVCAR-8; test: Induction of apoptosis in human OVCAR8 cells assessed as increase in apoptotic cells incubated for 48 hrs by acridine orange and ethidium bromide dye based fluorescence microscopy analysis; assay type: functional, cell-based
[29] = system: OVCAR-8; test: Cytotoxicity against human OVCAR8 cells assessed as reduction in cell viability at 0.05 uM measured upto 98 hrs by xcCELLigence RTCA analysis; assay type: functional, cell-based
[30] = system: OVCAR-8; test: Cell cycle arrest in human OVCAR8 cells assessed as accumulation at G0/G1 phase at 0.05 uM incubated for 24 hrs by propidium iodide staining based flow cytometry (reference value: 67.06 +/- 1.42%); assay type: functional
[31] = system: OVCAR-8; test: Cell cycle arrest in human OVCAR8 cells assessed as accumulation at S phase at 0.05 uM incubated for 24 hrs by propidium iodide staining based flow cytometry (reference value: 7.1 +/- 0.86%); assay type: functional
[32] = system: OVCAR-8; test: Cell cycle arrest in human OVCAR8 cells assessed as accumulation at G2/M phase at 0.05 uM incubated for 24 hrs by propidium iodide staining based flow cytometry (reference value: 25.78 +/- 0.71%); assay type: functional
[33] = system: OVCAR-8; test: Induction of apoptosis in human OVCAR8 cells assessed as chromatin condensation at 0.03 uM incubated for 48 hrs by hematoxylin and eosin staining based […] analysis; assay type: functional, cell-based
[34] = system: OVCAR-8; test: Induction of apoptosis in human OVCAR8 cells assessed as reduction in cell volume at 0.03 uM incubated for 48 hrs by hematoxylin and eosin staining based […] analysis; assay type: functional
[35] = system: OVCAR-8; test: Induction of apoptosis in human OVCAR8 cells assessed as nuclear fragmentation at 0.03 uM incubated for 48 hrs by hematoxylin and eosin staining based […] analysis; assay type: functional, cell-based
[36] = system: OVCAR-8; test: Induction of apoptosis in human OVCAR8 cells assessed as reduction in cell viability at 0.03 uM incubated for 48 hrs by acridine orange and ethidium bromide dye based fluorescence microscopy analysis; assay type: functional
[37] = system: OVCAR-8; test: Induction of apoptosis in human OVCAR8 cells assessed as increase in apoptotic cells at 0.03 uM incubated for 48 hrs by acridine orange and ethidium bromide dye based fluorescence microscopy analysis; assay type: functional, cell-based

Structure (SMILES): COc1ccc2c(c1)O[C@H]1c3cc(OC)c(OC)cc3OC[C@@H]21
- IC50 [1]: 38500 nM
- IC50 [2]: 82800 nM
- IC50 [3]: 82800 nM
- IC50 [4]: 32800 nM

Structure (SMILES): COc1cccc2c1C(=O)c1c(O)c3c(c(O)c1C2=O)C[C@@](O)(C(=O)CO)C[C@@H]3O[C@H]1C[C@H](N)[C@H](O)[C@H](C)O1 [DOXORUBICIN]
- IC50 [2]: 40 nM
- IC50 [4]: 80 nM
- Activity [5]: Active
- Activity [6]: Active

Structure (SMILES): COc1ccc2c(c1)OC1c3cc(OC)c(OC)cc3OCC21 (racemic)
- IC50 [1]: 11400 nM
- IC50 [2]: 760 nM
- IC50 [3]: 5930 nM
- IC50 [4]: 14000 nM
- Activity [7]: inactive
- Activity [8]: 52.61%
- Activity [9]: 46.72%
- Activity [10]: 10.02%
- Activity [11]: 10.93%
- Activity [12]: 37.16%
- Activity [13]: 42.06%

- IC50 [14]: 10.7 nM
- IC50 [16]: 12.3 nM
- IC50 [17]: 7.94 nM
Structure (SMILES): COc1ccc2c(c1)O[C@@H]1c3cc(OC)c(OC)cc3OC[C@H]21
- IC50 [1]: 2420 nM
- IC50 [2]: 200 nM
- viability at 72 h, 10 ug/ml [15]: 81%
- IC50 [3]: 1790 nM
- IC50 [4]: 3610 nM
- Activity [18]: Dose-dependent effect
- Activity [8]: 15.83%
- Activity [9]: 10.84%
- Activity [19]: 58.16%
- Activity [20]: 10.98%
- Activity [10]: 8.76%
- Activity [11]: 9.92%
- Activity [21]: 9.1%
- Activity [22]: 10.39%
- Activity [12]: 75.24%
- Activity [13]: 79.13%
- Activity [23]: 32.71%
- Activity [24]: 78.62%
- Activity [25]: 32%
- Activity [26]: Dose-dependent effect
- Activity [27]: Active
- Activity [28]: Dose-dependent effect

Structure (SMILES): CC(=O)O[C@H]1C(=O)[C@@]2(C)[C@H]([C@H](OC(=O)c3ccccc3)[C@]3(O)C[C@H](OC(=O)[C@H](O)[C@@H](NC(=O)c4ccccc4)c4ccccc4)C(C)=C1C3(C)C)[C@]1(OC(C)=O)CO[C@@H]1C[C@@H]2O [PACLITAXEL]
- Activity [29]: Active
- Activity [30]: 34.28%
- Activity [31]: 15.72%
- Activity [32]: 49.97%
- Activity [33]: Active
- Activity [34]: Active
- Activity [35]: Active
- Activity [36]: Active
- Activity [37]: Active
